Type in all cases: cell-based
Data set [1] deals with T1, Toll-like receptor 8 (Homo sapiens) (UniProt Q9NR97).
T1 sequence (whole entry): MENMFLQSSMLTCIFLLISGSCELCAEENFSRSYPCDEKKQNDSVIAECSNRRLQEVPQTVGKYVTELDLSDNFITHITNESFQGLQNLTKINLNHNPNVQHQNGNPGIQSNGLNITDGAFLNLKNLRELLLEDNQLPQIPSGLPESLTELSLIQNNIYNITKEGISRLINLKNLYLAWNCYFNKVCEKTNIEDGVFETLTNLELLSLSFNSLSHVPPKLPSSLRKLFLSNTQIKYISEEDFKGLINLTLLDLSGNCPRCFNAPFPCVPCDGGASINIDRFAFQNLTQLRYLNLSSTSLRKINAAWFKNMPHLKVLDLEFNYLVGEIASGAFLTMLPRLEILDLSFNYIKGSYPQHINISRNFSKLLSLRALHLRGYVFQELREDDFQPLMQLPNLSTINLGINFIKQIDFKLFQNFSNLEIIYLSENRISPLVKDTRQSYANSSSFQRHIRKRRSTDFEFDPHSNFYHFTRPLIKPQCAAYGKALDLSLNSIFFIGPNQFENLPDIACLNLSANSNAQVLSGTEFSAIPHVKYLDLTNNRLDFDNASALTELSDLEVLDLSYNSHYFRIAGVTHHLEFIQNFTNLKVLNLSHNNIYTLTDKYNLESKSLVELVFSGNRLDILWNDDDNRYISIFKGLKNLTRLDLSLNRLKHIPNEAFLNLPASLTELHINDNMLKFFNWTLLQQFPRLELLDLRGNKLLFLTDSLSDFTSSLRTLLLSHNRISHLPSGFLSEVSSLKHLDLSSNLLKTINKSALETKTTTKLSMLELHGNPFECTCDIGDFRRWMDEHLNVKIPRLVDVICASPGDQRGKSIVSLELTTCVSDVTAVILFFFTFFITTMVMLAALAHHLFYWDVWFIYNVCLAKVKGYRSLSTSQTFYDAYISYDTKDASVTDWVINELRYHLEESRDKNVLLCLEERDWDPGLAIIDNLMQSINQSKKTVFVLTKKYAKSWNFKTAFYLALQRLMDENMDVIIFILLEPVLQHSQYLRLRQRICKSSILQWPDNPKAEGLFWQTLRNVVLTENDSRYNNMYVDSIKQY
In words: Activation of human TLR8 expressed in HEK-Blue cells assessed as increase in NF-kappaB activation at 5 to 25 uM incubated for 24 hrs by quanti-blue SEAP assay.

Data set [2] can be described thus: Cytotoxicity against human HEK-Blue cells transfected with hTLR8 at 25 to 50 uM after 24 hrs by MTT assay.
Data set [3] concerns the target T1, Toll-like receptor 8 (Homo sapiens). Description: Antagonist activity at human TLR8 expressed in HEK-Blue cells assessed as reduction in CL075-induced NF-kappaB activation at 25 uM incubated for 1 hr followed by CL075-stimulation and measured after 24 hrs by quanti-blue SEAP assay relative to control.
Data set [4] has as its target Toll-like receptor 2 (Homo sapiens) (UniProt O60603). Description: Antagonist activity at TLR2 in human THP1 cells assessed as inhibition of Pam2CSK4/Pam3CSK4-induced IL-8 secretion preincubated for 1 hr followed by Pam2CSK4/Pam3CSK4 stimulation and measured after 24 hrs by ELISA. The settings on record: concentration not given here.

Calls of active or inactive are those of the source. No cut-off for these calls is given here. Bounds are passed on as bounds.

The inhibition is the change of the read-out against control, counted positive when it falls.

Toll-like receptor 2 (Homo sapiens), sequence (O60603 whole entry): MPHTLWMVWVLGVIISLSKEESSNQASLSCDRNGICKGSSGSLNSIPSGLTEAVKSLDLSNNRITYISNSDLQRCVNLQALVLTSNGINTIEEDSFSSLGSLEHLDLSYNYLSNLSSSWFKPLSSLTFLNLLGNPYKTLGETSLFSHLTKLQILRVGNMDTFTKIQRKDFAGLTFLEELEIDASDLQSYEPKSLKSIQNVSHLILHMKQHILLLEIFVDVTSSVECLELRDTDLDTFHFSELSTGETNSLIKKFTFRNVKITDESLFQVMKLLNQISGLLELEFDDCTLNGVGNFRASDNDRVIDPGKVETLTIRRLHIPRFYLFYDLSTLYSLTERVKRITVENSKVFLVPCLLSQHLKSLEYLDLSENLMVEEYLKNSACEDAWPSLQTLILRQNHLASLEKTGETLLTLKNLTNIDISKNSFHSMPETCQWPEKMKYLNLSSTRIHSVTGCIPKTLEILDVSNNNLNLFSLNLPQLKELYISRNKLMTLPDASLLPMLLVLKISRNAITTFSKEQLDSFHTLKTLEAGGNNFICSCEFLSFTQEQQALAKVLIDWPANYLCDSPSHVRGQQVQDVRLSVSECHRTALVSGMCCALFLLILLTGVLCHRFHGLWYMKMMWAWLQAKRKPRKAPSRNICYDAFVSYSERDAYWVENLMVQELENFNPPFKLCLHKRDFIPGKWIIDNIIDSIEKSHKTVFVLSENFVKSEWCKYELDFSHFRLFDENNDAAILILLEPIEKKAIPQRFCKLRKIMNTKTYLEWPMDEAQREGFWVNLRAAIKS

With `C=CCNc1nc(C)nc(N2NC(C)=CC2C)n1` (stereo not given), the outcome in data set [1] was inactive. Moreover, the Activity entry in data set [2] is “Non-Toxic”.
For the compound `CCCCCCn1c(=O)[nH]c2ccccc21`, the outcome in data set [1] was inactive. The Activity entry in data set [2] is listed as “Non-Toxic”.
On the same counts, the results for `CC(C)OC(=O)CSc1nc2ccc[nH]c-2n1` are “inactive” and “Non-Toxic”.
On the same counts, the results for `CCCCC(=O)c1c(C)[nH]c2ccccc12` are “inactive” and “Non-Toxic”.
With `Oc1nc2ccccc2n1Cc1ccccc1`, the outcome in data set [1] was inactive. Moreover, the Activity entry in data set [2] is given as “Non-Toxic”.
Regarding `CCOC(=O)c1ccc(NC(=O)C(CC)Sc2nc3ccccc3[nH]2)cc1` (stereo not given), the outcome in data set [1] was inactive. For the same compound, the Activity result in data set [2] is “Non-Toxic”. For the same compound, the inhibition in data set [3] is under 50%.
In the case of `Cc1[nH]c2ccccc2c1C(=O)C(=O)NCc1ccncc1`, the result in data set [1] was inactive. The figures for the inhibition in data set [4] and in data set [3] were 40% and under 50%, respectively. In data set [2], the Activity entry was “Non-Toxic”.
As to `C=CCNc1nc(-c2ccco2)cc(C(F)(F)F)n1`, in data set [1], the result was inactive. For the same compound, the Activity entry in data set [2] was “Non-Toxic”.
For `COc1ccc(NC(=O)c2[nH]nc3ccccc23)cn1` the same measures were “inactive” and “Non-Toxic”.
`CCCSc1nc2ccccc2[nH]1`: in data set [1], the outcome was inactive. The Activity entry in data set [2] is listed as “Non-Toxic”.
In the case of `CCn1cc(-c2cc(C(F)(F)F)nc(NCc3ccco3)n2)cn1`, in data set [1], the outcome was inactive. The Activity entry in data set [2] is reported as “Non-Toxic”.

These data come from ChEMBL document CHEMBL4304775, “Identification and characterization of a novel chemotype for human TLR8 inhibitors” (Eur J Med Chem, 2019).
